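Each compound was tested at five concentrations against cells in 96-well plates for 48 hours. The concentration for 50% growth inhibition is given as GI50. The concentration for full growth arrest is given as TGI.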 *1 amine or outer side, *2 acyl side, *3 side chain or, on linkers, in order; H or OH if unused. Where a SMILES comes first, the peptide text is derived from it. [ ]: non-standard residue; d: D form. The star is where a group is joined. X11 = C/C=C/CC(C)C(O)[C@H](N[*:1])C(=O)[*:2]; Decanoyl = CCCCCCCCCC(=O)*; Leu(ol) = CC(C)C[C@H](N)CO; Iva = CC[C@](C)(N)C(=O)O; Aib = CC(C)(N)C(=O)O
Experiments:
Test in all cases: DTP human tumour cell line panel, 48 h
786-0 renal = system: 786-0 renal
A498 renal = system: A498 renal
A549 NSCLC = system: A549 NSCLC
ACHN renal = system: ACHN renal
BT-549 breast = system: BT-549 breast
CAKI-1 renal = system: CAKI-1 renal
CCRF-CEM leukemia = system: CCRF-CEM leukemia
COLO 205 colon = system: COLO 205 colon
DU-145 prostate = system: DU-145 prostate
EKVX NSCLC = system: EKVX NSCLC
HCC-2998 colon = system: HCC-2998 colon
HCT-116 colon = system: HCT-116 colon
HCT-15 colon = system: HCT-15 colon
HL-60(TB) leukemia = system: HL-60(TB) leukemia
HOP-62 NSCLC = system: HOP-62 NSCLC
HOP-92 NSCLC = system: HOP-92 NSCLC
HS 578T breast = system: HS 578T breast
HT29 colon = system: HT29 colon
IGROV1 ovarian = system: IGROV1 ovarian
K-562 leukemia = system: K-562 leukemia
KM12 colon = system: KM12 colon
LOX IMVI melanoma = system: LOX IMVI melanoma
M14 melanoma = system: M14 melanoma
MALME-3M melanoma = system: MALME-3M melanoma
MCF7 breast = system: MCF7 breast
MDA-MB-231 breast = system: MDA-MB-231 breast
MDA-MB-435 = system: MDA-MB-435
MOLT-4 leukemia = system: MOLT-4 leukemia
NCI-H226 lung = system: NCI-H226 lung

For `C/C=C/CC(C)C(O)[C@H](NC(=O)[C@@H]1CCCN1C(=O)C(C)(C)NC(=O)CCCCCCCCC)C(=O)N[C@@](C)(CC)C(=O)N[C@@H](CCC(N)=O)C(=O)N[C@H](CCC(N)=O)C(=O)NC(C)(C)C(=O)NC(C)(C)C(=O)N[C@@H](CCC(N)=O)C(=O)N[C@H](CC(C)C)C(=O)N[C@H](CO)CC(C)C` (stereo partly drawn) (Decanoyl-[Aib]P[X11][Iva]Q[dQ][Aib][Aib]Q[dL][Leu(ol)]), the GI50 (786-0 renal) was 1.81 µM, the TGI (786-0 renal) was 3.35 µM and the GI50 (A498 renal) was 1.94 µM. For the same molecule, the TGI (A498 renal) was 3.68 µM, the GI50 (A549 NSCLC) was 3.02 µM and the TGI (A549 NSCLC) was 9.38 µM. It also gave a GI50 (ACHN renal) of 2.45 µM, a TGI (ACHN renal) of 6.09 µM and a GI50 (BT-549 breast) of 1.98 µM. It also gave a TGI (BT-549 breast) of 3.67 µM, a GI50 (CAKI-1 renal) of 2.13 µM and a TGI (CAKI-1 renal) of 5.02 µM. It also gave a GI50 (CCRF-CEM leukemia) of 2.04 µM, a TGI (CCRF-CEM leukemia) of 4.4 µM and a GI50 (COLO 205 colon) of 2 µM. It also gave a TGI (COLO 205 colon) of 4.44 µM, a GI50 (DU-145 prostate) of 1.73 µM and a TGI (DU-145 prostate) of 3.13 µM. For the same molecule, the GI50 (EKVX NSCLC) was 1.85 µM, the TGI (EKVX NSCLC) was 3.77 µM and the GI50 (HCC-2998 colon) was 2.16 µM. For the same molecule, the TGI (HCC-2998 colon) was 4.63 µM, the GI50 (HCT-116 colon) was 2.41 µM and the TGI (HCT-116 colon) was 6.09 µM. It also gave a GI50 (HCT-15 colon) of 2.54 µM, a TGI (HCT-15 colon) of 6.93 µM and a GI50 (HL-60(TB) leukemia) of 1.93 µM. It also gave a TGI (HL-60(TB) leukemia) of 4.12 µM, a GI50 (HOP-62 NSCLC) of 1.99 µM and a TGI (HOP-62 NSCLC) of 4.06 µM. It also gave a GI50 (HOP-92 NSCLC) of 1.84 µM, a TGI (HOP-92 NSCLC) of 4.08 µM and a GI50 (HS 578T breast) of 1.78 µM. It also gave a TGI (HS 578T breast) of 3.49 µM, a GI50 (HT29 colon) of 2.41 µM and a TGI (HT29 colon) of 5.68 µM. For the same molecule, the GI50 (IGROV1 ovarian) was 2.34 µM, the TGI (IGROV1 ovarian) was 6.31 µM and the GI50 (K-562 leukemia) was 1.95 µM. The TGI (K-562 leukemia) was 4 µM, the GI50 (KM12 colon) was 1.95 µM and the TGI (KM12 colon) was 3.94 µM. For the same molecule, the GI50 (LOX IMVI melanoma) was 1.73 µM, the TGI (LOX IMVI melanoma) was 3.3 µM and the GI50 (M14 melanoma) was 1.81 µM. The TGI (M14 melanoma) was 3.44 µM, the GI50 (MALME-3M melanoma) was 1.56 µM and the TGI (MALME-3M melanoma) was 2.96 µM. For the same molecule, the GI50 (MCF7 breast) was 1.81 µM, the TGI (MCF7 breast) was 3.51 µM and the GI50 (MDA-MB-231 breast) was 1.71 µM. It also gave a TGI (MDA-MB-231 breast) of 3.16 µM, a GI50 (MDA-MB-435) of 1.68 µM and a TGI (MDA-MB-435) of 3.05 µM. For the same molecule, the GI50 (MOLT-4 leukemia) was 2.33 µM, the TGI (MOLT-4 leukemia) was 4.93 µM and the GI50 (NCI-H226 lung) was 2.07 µM. The TGI (NCI-H226 lung) was 4.56 µM.

From PubChem BioAssay (NCI)
